Results on 5 molecules are retold here after patent US20050123936A1, “Method, composition, and kit to design, evaluate, and/or test compounds that modulate regulatory factor binding to nucleic acids” (priority 2003, published 2005).

Ends that are not written are not given here. Hoechst 33258 analog = not defined here Where only a bound is given, the exact number is not on record here.

Series [1] has as its target TGGTCA matched site on 250-bp EcoRI/PvuII restriction fragment from plasmid pDEH9. The experiment in a line: Quantitative DNase I footprint titration, matched site. Type of series: binding. The settings on record: 12 h at 22° C., TKMC buffer pH 7.0, read-out: Equilibrium Dissociation Constants Kd, TGGTCA. On the procedure:
(§1) Quantitative DNaseI footprinting can be used to determine the equilibrium association constants for binding to match and mismatch sites. Footprinting experiments are generally performed on 3′- and/or 5′-^32P end restriction fragments derived from plasmids. 3′-shifted cleavage patterns are consistent with location of the polyamide in the minor groove. Typical reaction conditions are: 10 mM Tris-HCl, 10 mM KCl, 10 mM MgCl2, 5 mM CaCl2, pH 7.0, and 22° C. See Brenowitz et al. (1986). Methods Enzymol. 130:132-181; Fox & Waring (1984) Nucleic Acids Res. 12:9271-9285; and Brenowitz et al. (1986) Proc. Natl. Acad. Sci. U.S.A. 83: 8462-8466.
DNase I Footprinting: Dissociation constants for the DNA binding of compounds 1, 2 and 3 were obtained following published protocols. All reactions were carried out in 400 μL total volume employing 20 kcpm of a 3′-radiolabelled 250-bp restriction fragment from the plasmid pDEH9 (FIG. 1a) (SEQ. ID. NO: 4). […]
FIGS. 1b, 1c, and 1d are quantitative DNAse I footprint titration experiments for compounds 1, 2 and 3 on the 3′^−32 P-labeled 250-bp EcoRI/PvuII restriction fragment from the plasmid pDEH9. […]
The DNA-binding properties of the compounds 1-3 were investigated by quantitative DNase 1 footprinting assays. […]

Series [2] relates to TGGCCA mismatch site on 250-bp EcoRI/PvuII restriction fragment from plasmid pDEH9. As to the kind of experiment: Quantitative DNase I footprint titration, mismatch site TGGCCA. Type of series: binding. As to the method: as §1
(§2) DNase I Footprinting: Dissociation constants for the DNA binding of compounds 1, 2 and 3 were obtained following published protocols. All reactions were carried out in 400 μL total volume employing 20 kcpm of a 3′-radiolabelled 250-bp restriction fragment from the plasmid pDEH9 (FIG. 1a) (SEQ. ID. NO: 4). No carrier DNA was used in the equilibration, and the solutions were allowed to equilibrate for 12 h at 22° C. in TKMC buffer (10 mM TRIS, 10 mM KCl, […], 5 mM CaCl2 pH 7.0) prior to the DNase I digestion. Reaction products (8 kcpm) were resolved on denaturing 8% polyacrylamide sequencing gels run at 55 W.
(§3) FIGS. 1b, 1c, and 1d are quantitative DNAse I footprint titration experiments for compounds 1, 2 and 3 on the 3′^−32 P-labeled 250-bp EcoRI/PvuII restriction fragment from the plasmid pDEH9. Lane 1: Intact DNA. Lane 2: A-reaction. Lane 3: G-reaction. Lane 4: DNAse 1 standard.
(§4) The DNA-binding properties of the compounds 1-3 were investigated by quantitative DNase 1 footprinting assays. The equilibrium binding constants of each of the compounds for a matched versus three single base pair mismatch sites is compiled in Table 1. The lower strand sequence is shown in the header. Mismatched base pairs are underlined. The residue under the YPWM peptide is in bold. Relative specificities are given in square brackets.

Series [3] concerns TGGGCA mismatch site on 250-bp EcoRI/PvuII restriction fragment from plasmid pDEH9. The experiment in a line: Quantitative DNase I footprint titration, mismatch site TGGGCA. The series is classed as binding. As to the method: as §1, §2, §3, §4
The test system of series [4] is AGCTCA mismatch site on 250-bp EcoRI/PvuII restriction fragment from plasmid pDEH9. As to the kind of experiment: Quantitative DNase I footprint titration, mismatch site AGCTCA. Type of series: binding. As to the method:
as §1, §2, §3, §4

Series [5] addresses T1, extradenticle (Exd) protein (residues 238-324) (Drosophila melanogaster, UniProt P40427).
T1 construct: comprising the homeodomain and the extended fourth helix (residues 238-324); made in house
T1 sequence (P40427 238-324): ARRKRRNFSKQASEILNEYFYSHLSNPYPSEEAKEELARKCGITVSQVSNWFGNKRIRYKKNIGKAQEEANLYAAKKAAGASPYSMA
The experiment in a line: EMSA: recruitment of Exd to its cognate DNA site by polyamides 1-3. The series is classed as binding. To be noted: saturating 50 nM compound, Exd 0-100 nM. An excerpt: (§5) Protein expression: Drosophila extradenticle (Exd) protein comprising the homeodomain and the extended fourth helix (residues 238-324), as well as ultrabithorax (Ubx) protein homeodomain (residues 233-313 of the Ubx isoform IVa) were expressed and purified after Passner & Aggarwal. The purified proteins Exd and Ubx were used for EMSA studies as described below.
(§6) For the templates, the DNA oligonucleotides depicted in FIGS. 2a, 2b, 2c, and 2d were used, SEQ. ID NOS: 5, 6, 7, and 8, respectively. The DNA upper strand was annealed with the respective matching lower strand and both strands were 5′-labeled with γ-^32P-ATP and polynucleotide kinase, using standard procedures.
Gel-shift experiments: The master mix contained 50% BSA/50% glycerol, reaction buffer (150 mM potassium glutamate, 50 mM HEPES pH 7.0, 1 mM DTT, and 5′-end labeled DNA (^32P) The final concentrations in the samples were 100 ng/μL BSA and 10% glycerol. Polyamides were kept in subdued lighting whenever possible. Upon addition of the polyamide to 1 pM DNA, the samples were incubated at 25 °C. for 30 minutes in a 20 μL reaction. Next, Exd was added to the samples and incubated for 1 hour at 4° C. A 9% acrylamide/3% glycerol gel was pre-run for 15 min prior to loading. In each lane 15 μL of a 20 μL reaction were loaded while the gel was running to prevent the samples from being diluted. The gels were run at 4° C./185 V. Gels were dried, exposed to a phosphorimager screen, and visualized using a Molecular Dynamics phosphorimager.
FIGS. 3a and 3b: EMSA studies with polyamides 1-3, Exd and Ubx. In FIG. 3a, each polyamide binds and decreases the mobility of free DNA (lanes 2-18). […] In lanes 2-6,8-12, 14-18, Exd was added in following concentrations: 0, 3, 10, 30, 100 nM. Lanes 19 and 20 contained DNA bearing the Exd-Ubx binding site that was used in X-ray crystal structure determination (see methods above for sequence). In the reaction shown in lane 20, 275 nM Ubx and 30 nM Exd were incubated with DNA. […]

The subject of series [6] is DNA duplex templates (FIG. 2a optimal; FIG. 2c mismatch in PA binding site). The experiment in a line: EMSA: binding of polyamides to the DNA duplex templates. To be noted: even at 100 nM concentrations.
Description: as §6
FIGS. 2a, 2b, 2c and 2d show depict the DNA duplexes used for the EMSA studies. The binding site for the Exd protein is marked by a box, the polyamide or Hox protein binding site is shown in boldface, FIG. 2a depicts the optimal template. FIG. 2b depicts a 2-bp mismatch in the Exd site. FIG. 2c depicts a 2-hp mismatch in the PA binding site. FIG. 2d depicts a composite Ubx-Exd binding site (see Passner et al. (1999) Nature, 397:714-719). […]

Another series addresses T2, Exd (Drosophila melanogaster, UniProt P40427).
T2 construct: comprising the homeodomain and the extended fourth helix (residues 238-324); made in house
T2 sequence (P40427 238-324): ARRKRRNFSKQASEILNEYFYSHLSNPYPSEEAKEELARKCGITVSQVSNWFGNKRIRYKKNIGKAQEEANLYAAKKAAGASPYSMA
The experiment in a line: Example 7 EMSA: recruitment of Exd by linker compounds. Type of series: binding. On the procedure:
The assays were performed with 50 nM of the conjugate pre-incubated with target DNA (thus to bind the anchor moiety to the target nucleic acid) followed by the addition and incubation with Exd.
To determine the effects of longer linker on binding, the ability of compounds using linkers 1, 2 and 4 to recruit Exd at three different temperatures was investigated.

In the next series the test system is double-stranded DNA. The settings on record: Behrens et al. (2001); cited from earlier work.
The target of series [7] is Ultrabithorax (Ubx) homeodomain, isoform IVa (Drosophila, UniProt P83949-5 P83949-5:233-313). The experiment in a line: EMSA; Ubx alone; 150 mM K glutamate, 50 mM HEPES pH 7.0, 4 C. The settings on record: label: 5'-32P both strands. On the procedure:
Gel-shift studies with the Ubx protein were performed under identical buffer conditions using the duplex oligonucleotide listed in FIG. 2d. Ubx was added to the reaction mixture containing ³²P-endlabeled duplex DNA and incubated at 4° C. for 30 min. […] The complexes were resolved under similar gel conditions as those described for DNA-polyamide-Exd complexes above.

Series [8] deals with T3, Drosophila extradenticle (Exd) protein comprising the homeodomain and the extended fourth helix (residues … (Drosophila, UniProt P40427 238-324)).
T3 sequence (looked up): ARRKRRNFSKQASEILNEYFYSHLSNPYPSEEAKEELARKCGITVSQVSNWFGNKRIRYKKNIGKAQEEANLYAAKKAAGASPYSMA
As to the kind of experiment: EMSA, conjugate pre-incubated with target DNA, then Exd.

Series [9] concerns duplex DNA with composite Ubx-Exd binding site (FIG. 2d). As to the kind of experiment: EMSA: Ubx binding to its cognate DNA. On the procedure:
(§7) Gel-shift studies with the Ubx protein were performed under identical buffer conditions using the duplex oligonucleotide listed in FIG. 2d. Ubx was added to the reaction mixture containing ^32P-endlabeled duplex DNA and incubated at 4° C. for 30 min. Subsequently Exd was added and the reaction was further incubated for 60 min at 4° C. The complexes were resolved under similar gel conditions as those described for DNA-polyamide-Exd complexes above. […] Under saturating concentrations of Ubx (325 nM) the Kd of Exd for the binary [Ubx-DNA] complex was 2-3 fold larger than the affinity of Exd for the polyamide-DNA binary complex.

Series [10] deals with T4, extradenticle (Exd) protein (Drosophila melanogaster, UniProt P40427).
T4 construct: comprising the homeodomain and the extended fourth helix (residues 238-324); made in house
T4 sequence (P40427 238-324): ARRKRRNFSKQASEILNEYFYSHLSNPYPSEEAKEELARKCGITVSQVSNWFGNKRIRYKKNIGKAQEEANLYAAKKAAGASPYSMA
As to the kind of experiment: EMSA: Exd binding to the binary Ubx-DNA complex. The settings on record: saturating concentrations of Ubx (325 nM). On the procedure: as §5, §7

The mark [11] stands for this setting: relative to matched site TGGTCA.

Sequence of Ultrabithorax (Ubx) homeodomain, isoform IVa (P83949 other isoform, or with tags, fused parts or gaps): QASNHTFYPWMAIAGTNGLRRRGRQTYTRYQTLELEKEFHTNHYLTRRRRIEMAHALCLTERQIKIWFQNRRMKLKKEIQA

As for Cmpd 2 (FYPWMKG), the Kd in [1] was 5.8 ± 0.8 nM; in series [2] (single base pair mismatch site, 22° C., TKMC buffer, read-out: Equilibrium Dissociation Constants Kd, TGGCCA), 7.9 ± 1.6 nM; in [3] (single base pair mismatch site, 22° C., TKMC buffer, read-out: Equilibrium Dissociation Constants Kd, TGGGCA) it was not below 0.1 nM; in series [4] (single base pair mismatch site, 22° C., TKMC buffer, read-out: Equilibrium Dissociation Constants Kd, AGCTCA), 6.4 ± 1.1 nM. The “Relative specificity (square brackets), TGGCCA” value in series [2] (setting [11]) is 1.4. In addition, the “Relative specificity (square brackets), TGGGCA” value in [3] (setting [11]) was determined as 17. The “Relative specificity (square brackets), AGCTCA” value in [4] (setting [11]) is on record as 1.1. Further, the “ability to recruit Exd to its cognate DNA site (Exd binding)” value in series [5] (listed as Compound 2) was “capable of recruiting Exd to DNA”; in series [5] (listed as compound 2), “binds DNA with very high affinity”. In addition, in series [6], the “binding to mutated template (polyamide-binding site eliminated)” value is “did not bind”. Moreover, the figures for the “ability to recruit Exd” value in the series with Exd (physiological temperatures (37° C.)) and with Exd (room temperature (23° C.)) were “fails to do so effectively” and “capable of recruiting Exd”, respectively.
For “Hoechst 33258 analog-KSPKKAKK polypeptide: Hoechst 33258 analog bonded to the N-terminus of the cationic polypeptide KSPKKAKK (Behrens et al.) ({Hoechst 33258 analog}-KSPKKAKK; reading uncertain)”, the “higher affinity for double-stranded DNA than the Hoechst analog itself” value in the series with double-stranded DNA is “approximately 10 fold”.

B1: Composite Ubx-Exd EMSA duplex (FIG. 2d) (dsDNA)
DNA 1: GATCTCCCGGCGAATGATTTATGGTATCGGCGCCACTGTCACCCGGA
DNA 2: TCCGGGTGACAGTGGCGCCGATACCATAAATCATTCGCCGGGAGATC
In series [7], B1 returned a dissociation constant Kd of 200 nM.
For FYPAAK (also: conjugated to hairpin polyamide, linker not given here) [polyamide bearing an altered hook (FYPAAK)], the binding result in series [8] is “no binding (tested: 50 nM conjugate)”.

B2: Ubx: Drosophila ultrabithorax (Ubx) protein homeodomain (residues 233-313 of the Ubx isoform IVa) (protein, UniProt P83949 233-313, looked up, fragment)
chain: QASNHTFYPWMAIAGECPEDPTKSKIRSDLTQYGGISTDMGKRYSESLAGSLLPDWLGTNGLRRRGRQTYTRYQTLELEKE
modifications: isoform IVa
As to B2, the “affinity of Ubx for its DNA site lower than that of compound 2 for its respective site” value in series [9] is not below 40 fold. The molecule also came in with a Kd in series [9] (4° C.) of 200 ± 25 nM. For the same molecule, the “Kd of Exd for the binary [Ubx-DNA] complex, larger than for the polyamide-DNA binary complex” value in series [10] is reported as 2-3 fold.
